Legend:
Type in all cases: cell-based
Conditions in all cases: 0.0625 μg/ml, 24 hours, control set as 1-fold
ASMTL gene = experiment: qPCR expression level of ASMTL gene in SHSY5Y cells
Method: (§1) SHSYSY cells were seeded in a 6-well plate (1×10^5 cells/well) and then cultured for 24 hours. Thereafter, cells were divided into the control group and experimental group and were separately cultured in the following medium for 24 hours: • 1. Control group: DMEM medium; • 2. Experimental group: a medium the same as that of the control group, but additionally added with 0.0625 μg/ml of the compound of formula (I). Thereafter, cells of the above groups were harvested and subjected to an RNA extraction with an RNA Extract Kit. The RNA thus obtained was then transcribed into cDNA by using a Reverse Transcriptase. Thereafter, the cDNA was subjected to a quantitative polymerase chain reaction (qPCR) by using a Step One Plus system and a KAPA SYBR FAST qPCR kit to determine the expression levels of genes related to melatonin (including TPH1, DDC, AANAT and ASMTL) in the cells of each group. The above experimental steps were repeated three times, and then the results of the three experiments were averaged. Thereafter, the result of the control group was used as a basis (i.e., the gene expression level of the control group was set as 1-fold) to calculate the relative gene expression level of the experimental group.

AANAT gene = experiment: qPCR expression level of AANAT gene in SHSY5Y cells
Method: as §1

DDC gene = experiment: qPCR expression level of DDC gene in SHSY5Y cells
Method: as §1

TPH1 gene = experiment: qPCR expression level of TPH1 gene in SHSY5Y cells
Method: as §1

Oc1cc(O)c2c(c1)O[C@H](c1cc(O)c(O)c(O)c1)[C@@H](O)C2 [compound of formula (I), gallocatechin]
significantly increased: relative expression level of ASMTL gene as compared to the control group (ASMTL gene) | relative expression level of AANAT gene as compared to the control group (AANAT gene) | relative expression level of DDC gene as compared to the control group (DDC gene) | relative expression level of TPH1 gene as compared to the control group (TPH1 gene)
